Target: Tsr (E. coli serine chemoreceptor) (Escherichia coli, UniProt P02942)
Experiment: in vivo FRET kinase assay
Format: cell-based

Sequence of Tsr (E. coli serine chemoreceptor) (P02942 whole entry): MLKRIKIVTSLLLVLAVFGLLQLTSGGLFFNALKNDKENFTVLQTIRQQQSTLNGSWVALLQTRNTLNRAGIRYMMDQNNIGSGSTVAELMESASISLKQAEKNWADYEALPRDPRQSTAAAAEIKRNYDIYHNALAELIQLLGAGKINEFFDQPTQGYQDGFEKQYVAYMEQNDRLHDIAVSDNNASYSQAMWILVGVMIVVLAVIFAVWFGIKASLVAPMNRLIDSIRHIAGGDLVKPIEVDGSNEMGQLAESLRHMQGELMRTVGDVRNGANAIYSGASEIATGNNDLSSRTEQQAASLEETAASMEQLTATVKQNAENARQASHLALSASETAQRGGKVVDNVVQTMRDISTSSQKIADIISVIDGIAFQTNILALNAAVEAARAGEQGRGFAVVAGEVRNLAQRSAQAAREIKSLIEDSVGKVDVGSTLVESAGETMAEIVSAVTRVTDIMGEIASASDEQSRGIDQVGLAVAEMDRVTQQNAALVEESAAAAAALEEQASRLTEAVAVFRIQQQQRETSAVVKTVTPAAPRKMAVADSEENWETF

N[C@@H](CO)C(=O)O [serine]
IC50: 18 µM

— publication PMC9282233 (Proceedings of the National Academy of Sciences of the …, 2022)
